We go through 24 molecules from article PMC12525784, “Novel Azaborine-Based Inhibitors of Histone Deacetylases (HDACs)” (Molecules, 2025).

Holding throughout (assay type): biochemical
In one experiment the target is T1, HDAC1 (Homo sapiens, UniProt Q13547).
T1 construct: purchased BPS Bioscience
The experiment can be described thus: HDAC1 enzymatic activity assay (dose-response, Boc-Lys(Ac)-AMC). The note with it: 40 nM HDAC1, 50 µM Boc-Lys(Ac)-AMC; triplicate, mean ± SD. On the procedure: (§1) Enzymatic activity assays for compound screening and dose–response analysis were performed as previously described. In brief, compounds were screened at 35 µM using 1 nM HDAC4 and 10 nM HDAC8, respectively. For dose–response curves, serial inhibitor dilutions were incubated with 40 nM HDAC1 (BPS Bioscience, San Diego, CA, USA), 1 nM HDAC4, or 10 nM HDAC8. Reactions were initiated with 20 µM Boc-Lys(Tfa)-AMC (HDAC4/8) or 50 µM Boc-Lys(Ac)-AMC (HDAC1) and terminated with 0.4 mg/mL trypsin (Roth, Karlsruhe, Germany) and 1.7 µM SATFMK (HDAC4/8) or 4.2 µM SAHA (HDAC1). All IC50 determinations were performed in triplicate, and the results are expressed as mean values ± standard deviation (SD). HDAC4 and HDAC8 were produced according to previously reported protocols. HDAC1 was purchased from BPS Bioscience (San Diego, CA, USA). Boc-Lys(Tfa)-AMC and trypsin were purchased from Bachem (Bubendorf, Switzerland) and AppliChem (Darmstadt, Germany), respectively.

The next experiment has as its target T2, HDAC4 (Homo sapiens, UniProt P56524).
T2 construct: made in house
Briefly: HDAC4 enzymatic activity assay (dose-response, Boc-Lys(Tfa)-AMC). The note with it: 1 nM HDAC4, 20 µM Boc-Lys(Tfa)-AMC; triplicate, mean ± SD. On the procedure:
as §1, with “In brief, compounds were screened at 35 µM using 1 nM HDAC4 and 10 nM HDAC8, respectively.” left out, “Reactions were initiated with 20 µM Boc-Lys(Tfa)-AMC (HDAC4/8) or 50 µM Boc-Lys(Ac)-AMC (HDAC1) and terminated with 0.4 mg/mL trypsin (Roth, Karlsruhe, Germany) and 1.7 µM SATFMK (HDAC4/8) or 4.2 µM SAHA (HDAC1).” left out

The next experiment addresses T3, HDAC8 (Homo sapiens, UniProt Q9BY41).
T3 construct: made in house
T3 sequence (Q9BY41 1-377): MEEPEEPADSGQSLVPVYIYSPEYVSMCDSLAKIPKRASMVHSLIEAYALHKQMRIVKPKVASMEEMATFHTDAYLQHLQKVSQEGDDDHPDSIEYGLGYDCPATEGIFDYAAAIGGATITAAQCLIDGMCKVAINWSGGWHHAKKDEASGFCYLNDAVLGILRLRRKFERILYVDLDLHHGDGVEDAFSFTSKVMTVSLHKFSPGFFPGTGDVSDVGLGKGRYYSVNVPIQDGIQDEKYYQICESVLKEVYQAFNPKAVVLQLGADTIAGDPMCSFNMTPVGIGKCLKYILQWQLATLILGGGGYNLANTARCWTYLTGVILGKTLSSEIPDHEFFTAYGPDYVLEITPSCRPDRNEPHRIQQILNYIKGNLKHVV
The experiment can be described thus: HDAC8 enzymatic activity assay (dose-response, Boc-Lys(Tfa)-AMC). Conditions: 10 nM HDAC8, 20 µM Boc-Lys(Tfa)-AMC; triplicate, mean ± SD. On the procedure: as §1, with “In brief, compounds were screened at 35 µM using 1 nM HDAC4 and 10 nM HDAC8, respectively.” left out, “Reactions were initiated with 20 µM Boc-Lys(Tfa)-AMC (HDAC4/8) or 50 µM Boc-Lys(Ac)-AMC (HDAC1) and terminated with 0.4 mg/mL trypsin (Roth, Karlsruhe, Germany) and 1.7 µM SATFMK (HDAC4/8) or 4.2 µM SAHA (HDAC1).” left out

By IC50 is commonly meant the concentration at which inhibition is half-maximal.

T1 sequence (Q13547 whole entry): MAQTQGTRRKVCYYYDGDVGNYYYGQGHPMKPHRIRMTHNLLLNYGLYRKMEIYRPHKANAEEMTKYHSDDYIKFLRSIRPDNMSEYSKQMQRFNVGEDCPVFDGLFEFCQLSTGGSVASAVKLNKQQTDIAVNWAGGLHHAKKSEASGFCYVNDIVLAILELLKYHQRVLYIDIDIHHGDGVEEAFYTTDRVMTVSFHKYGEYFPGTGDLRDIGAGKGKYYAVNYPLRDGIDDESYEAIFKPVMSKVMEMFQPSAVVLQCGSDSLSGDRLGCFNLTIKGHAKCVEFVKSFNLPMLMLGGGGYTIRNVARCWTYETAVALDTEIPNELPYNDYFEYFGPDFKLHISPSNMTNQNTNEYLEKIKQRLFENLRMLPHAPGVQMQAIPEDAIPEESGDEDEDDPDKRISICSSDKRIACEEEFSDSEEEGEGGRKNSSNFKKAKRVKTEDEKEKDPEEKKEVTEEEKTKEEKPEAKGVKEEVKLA
T2 sequence (P56524 whole entry): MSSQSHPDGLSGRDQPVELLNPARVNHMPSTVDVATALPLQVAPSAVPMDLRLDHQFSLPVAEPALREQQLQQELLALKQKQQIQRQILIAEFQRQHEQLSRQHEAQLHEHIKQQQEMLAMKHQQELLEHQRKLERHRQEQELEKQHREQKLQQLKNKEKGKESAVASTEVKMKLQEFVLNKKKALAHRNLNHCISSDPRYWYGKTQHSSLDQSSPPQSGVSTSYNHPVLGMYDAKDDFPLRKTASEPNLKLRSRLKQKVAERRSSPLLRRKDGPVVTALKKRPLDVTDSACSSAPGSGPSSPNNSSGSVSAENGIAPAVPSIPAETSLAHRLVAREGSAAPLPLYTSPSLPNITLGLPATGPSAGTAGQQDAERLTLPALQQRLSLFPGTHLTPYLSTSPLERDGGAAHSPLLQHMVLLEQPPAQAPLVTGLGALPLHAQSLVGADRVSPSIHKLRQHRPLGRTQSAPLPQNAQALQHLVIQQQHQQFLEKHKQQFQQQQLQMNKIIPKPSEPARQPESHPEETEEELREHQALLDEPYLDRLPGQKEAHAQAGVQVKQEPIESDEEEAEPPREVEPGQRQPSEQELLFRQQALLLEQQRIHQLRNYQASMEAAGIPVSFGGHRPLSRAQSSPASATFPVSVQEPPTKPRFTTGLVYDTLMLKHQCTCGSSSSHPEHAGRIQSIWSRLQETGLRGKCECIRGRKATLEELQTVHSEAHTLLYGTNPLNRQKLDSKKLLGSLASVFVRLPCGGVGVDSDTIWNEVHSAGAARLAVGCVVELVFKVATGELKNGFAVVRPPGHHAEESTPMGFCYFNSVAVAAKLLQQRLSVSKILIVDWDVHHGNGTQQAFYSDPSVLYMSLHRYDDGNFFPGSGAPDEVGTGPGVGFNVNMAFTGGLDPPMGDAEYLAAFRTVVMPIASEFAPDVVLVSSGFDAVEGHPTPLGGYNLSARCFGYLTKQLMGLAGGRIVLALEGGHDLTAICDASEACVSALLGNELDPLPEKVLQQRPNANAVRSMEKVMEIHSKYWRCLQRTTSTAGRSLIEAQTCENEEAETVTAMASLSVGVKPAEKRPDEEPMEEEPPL

In the case of `Nc1ccccc1NC(=O)CCCCc1cn(CB2C=Cc3ccccc3N2)nn1` [Compound 8], the IC50 against HDAC1, against HDAC4 and against HDAC8 was > 35 µM throughout.
As for `Nc1ccccc1NC(=O)c1cn(CB2C=Cc3ccccc3N2)nn1` [Compound 9], the IC50 is > 35 µM on HDAC1, 16.8 ± 1.6 µM against HDAC4 and 20 ± 3 µM against HDAC8.
As to `Nc1ccccc1NC(=O)CCCc1cn(CB2C=Cc3ccccc3N2)nn1` [Compound 10], the IC50 at HDAC1 is > 35 µM; against HDAC4 it was 8.08 ± 1.59 µM; on HDAC8, 19 ± 5 µM.
Regarding `O=C(CCc1cn(CB2C=Cc3ccccc3N2)nn1)NO` [Compound 11], the IC50 against HDAC1, on HDAC4 and at HDAC8 was > 35 µM throughout.
In the case of `O=C(CCCCc1cn(CB2C=Cc3ccccc3N2)nn1)NO` [Compound 12], the figures for the IC50 against HDAC1, against HDAC4 and on HDAC8 were > 35 µM, 13.8 ± 4.3 µM and 6.2 ± 3.4 µM, respectively.
Take `O=C(CCCc1cn(CB2C=Cc3ccccc3N2)nn1)NO` [Compound 13]: the IC50 at HDAC1 is > 35 µM; at HDAC4 it was 23.1 ± 4.9 µM; against HDAC8, 3.3 ± 1.7 µM.
The like results for `Nc1cc(F)ccc1NC(=O)CCc1cn(CB2C=Cc3ccccc3N2)nn1` [Compound 14] were, in that order, > 35 µM, > 35 µM and > 35 µM.
On to `Nc1cc(F)ccc1NC(=O)CCCCc1cn(CB2C=Cc3ccccc3N2)nn1` [Compound 15], for which the IC50 on HDAC1, against HDAC4 and at HDAC8 was > 35 µM in each case.
Turning to `O=C(CCCCCCC(=O)OCB1C=Cc2ccccc2N1)NO` [Compound 16d], the IC50 is > 35 µM at HDAC1, 14.7 ± 1.7 µM against HDAC4 and > 35 µM on HDAC8.
As for `Nc1ccccc1NC(=O)CCCCCCC(=O)OCB1C=Cc2ccccc2N1` [Compound 17], the IC50 against HDAC1 was found to be 8.2 ± 2.5 µM; on HDAC4, 16.5 ± 1 µM; on HDAC8, 15 ± 3 µM.
The like results for `O=C(/C=C/c1ccc(C(=O)NO)cc1)OCB1C=Cc2ccccc2N1` [Compound 18] were, in that order, 8.2 ± 1.8 µM, > 35 µM and 0.52 ± 0.11 µM.
The like results for `O=C(CCCC(=O)OCB1C=Cc2ccccc2N1)NO` [Compound 19] were, in that order, > 35 µM, > 35 µM and > 35 µM.
For `Nc1cc(F)ccc1NC(=O)c1cccc(C(=O)OCB2C=Cc3ccccc3N2)c1` [Compound 20], the IC50 against HDAC1, against HDAC4 and at HDAC8 was > 35 µM each time.
With `Nc1ccccc1NC(=O)c1cccc(C(=O)OCB2C=Cc3ccccc3N2)c1` [Compound 21], the IC50 against HDAC1, at HDAC4 and against HDAC8 was > 35 µM each time.
Turning to `Nc1ccccc1NC(=O)CCSCCC(=O)OCB1C=Cc2ccccc2N1` [Compound 22], the IC50 at HDAC1, against HDAC4 and against HDAC8 was > 35 µM each time.
As for `O=C(NO)c1cccc(C(=O)OCB2C=Cc3ccccc3N2)c1` [Compound 23], the IC50 at HDAC1 is 1.88 ± 0.11 µM; on HDAC4 it was 7.3 ± 1.7 µM; against HDAC8, 0.44 ± 0.07 µM.
The like results for `O=C(CCCCCCNCB1C=Cc2ccccc2N1)NO` [Compound 24] were, in that order, 9.3 ± 2.3 µM, > 35 µM and > 35 µM.
The corresponding values for `O=C(NO)c1cccc(NCB2C=Cc3ccccc3N2)c1` [Compound 25] are > 35 µM, 17 ± 3 µM and > 35 µM.
Consider `Nc1cc(F)ccc1NC(=O)c1ccc(CNCB2C=Cc3ccccc3N2)cc1` [Compound 26], for which the IC50 against HDAC1, against HDAC4 and against HDAC8 was > 35 µM throughout.
`O=C(NO)c1cccc(CNCB2C=Cc3ccccc3N2)c1` [Compound 27]: the IC50 against HDAC1, at HDAC4 and against HDAC8 was > 35 µM in each case.
In the case of `O=C(NO)c1cccc(B2Nc3ccccc3N2)c1` [Compound 30], the IC50 is 0.975 ± 0.394 µM against HDAC1, 1.35 ± 0.18 µM on HDAC4 and 0.2 ± 0.02 µM at HDAC8.
On to `Nc1ccccc1NC(=O)c1cccc(B2Nc3ccccc3N2)c1` [Compound 31], for which the half-inhibitory concentration (IC50) on HDAC1, against HDAC4 and against HDAC8 was > 35 µM in each case.
`Nc1cc(F)ccc1NC(=O)c1cccc(B2Nc3ccccc3N2)c1` [Compound 32]: the 50% inhibitory concentration (IC50) against HDAC1, against HDAC4 and on HDAC8 was > 35 µM in each case.
For `O=C(NO)c1ccc(B2Nc3ccccc3N2)cc1` [Compound 35], the IC50 on HDAC1, at HDAC4 and against HDAC8 was > 35 µM in each case.
